This is an account of results in patent publication US5158942A, “Process of using phospholipid derivatives to inhibit multiplication of the human immunodeficiency virus” (Boehringer Mannheim GmbH, priority 1989, dated 1992).

Molecules are shown by their SMILES. In brackets after ≈: the same amount, converted by molar mass.

The conditions of data set [1]: M. S. Hirsch, J. Infect. Dis., 157, 427-431/1988; cited from earlier work.
The subject of data set [2] is HIV. In words: Inhibition of HIV replication in HIV infected human T-lymphoma cells or human fetal lung cells; amount of virus determined by new infection of human fetal lung cells. In kind it is cell-based. Conditions: Human immunodeficiency virus 1, readout: new infection of human fetal lung cells, read-out: IC50-value (concentration which results in an inhibition of the replication of 50%). The procedure: HIV infected human T-lymphoma cells or human fetal lung cells were treated with the inventive compound by using different concentration ranges of the test compound. The amount of the viruses was then determined by way of new infection of human fetal lung cells. The decrease of the resulting positive HIV-infected cells was regarded as a measure for the antiviral activity of the compound tested.
The following table gives the corresponding concentration, which results in an inhibition of the replication of 50% (IC50 -value): […]

For `Cc1cn([C@H]2C[C@H](N=[N+]=[N-])[C@@H](CO)O2)c(=O)[nH]c1=O` [AZT, 3'-azido-3'deoxythymidine], the “toxicities in the therapeutic range” value in data set [1] was “very severe toxicities occurring even in the therapeutic range”.

Turning to `CCCCCCCCCCCCOC(COP(=O)([O-])OCC[N+](C)(C)C)CSCCCCCCCCCCCC` (stereo not shown) [Example 4, 3-Dodecylmercapto-2-dodecyloxypropyl-1-phosphoric acid monocholine ester], in data set [2], the IC50 was found to be 4 µg/mL (≈ 6.56 µM). `CCCCCCCCCCCCCCCCSCC(COP(=O)([O-])OCC[N+](C)(C)C)OCCCCCCCCCC` (stereo not shown) [Example 5, 3-Hexadecylmercapto-2-decyloxypropyl-1-phosphoric acid monocholine ester]: the IC50 in data set [2] turned out to be 20 µg/mL (≈ 31.3 µM). Consider `CCCCCCCCCCCCCCCCOC(COP(=O)([O-])OCC[N+](C)(C)C)CSCCCCCCCCCC` (stereo not shown) [Example 6, 3-Decylmercapto-2-hexadecyloxypropyl-1-phosphoric acid monocholine ester], for which the IC50 in data set [2] was found to be 50 µg/mL (≈ 78.4 µM). Same read-out and setting: the value for `CCCCCCCCCCCCS(=O)(=O)CC(COP(=O)([O-])OCC[N+](C)(C)C)OCCCCCCCCCC` (stereo not shown) [Example 8, 3-Dodecylsulphonyl-2-decyloxypropyl-1-phosphoric acid monocholine ester] was 2 µg/mL (≈ 3.26 µM). The same measure, in the same setting: the value for `CCCCCCCCCCCCOC(COP(=O)([O-])OCC[N+](C)(C)C)CS(=O)(=O)CCCCCCCCCC` (stereo not shown) [Example 9, 3-Decylsulphonyl-2-dodecyloxypropyl-1-phosphoric acid monocholine ester] was 2 µg/mL (≈ 3.26 µM); that for `CCCCCCCCCCCSCC(COP(=O)([O-])OCC[N+](C)(C)C)OCCCCCCCCCC` (stereo not shown) [Example 11, 3-Undecylmercapto-2-decyloxypropyl-1-phosphoric acid monocholine ester] was 20 µg/mL (≈ 35.2 µM); that for `CCCCCCCCCCCCCCSCC(COP(=O)([O-])OCC[N+](C)(C)C)OCCCCCCCCCC` (stereo not shown) [Example 13, 3-Tetradecylmercapto-2-decyloxypropyl-1-phosphoric acid monocholine ester] was 4 µg/mL (≈ 6.56 µM). Same read-out and setting: the value for `CCCCCCCCCCCCSCC(CSCCCCCCCCCCCC)OP(=O)([O-])OCC[N+](C)(C)C` [Example 20, 1,3-Bis-(dodecylmercapto)-propyl-1-phosphoric acid monocholine ester] was 4 µg/mL (≈ 6.39 µM).

Consider `CCCCCCCCCCCCSCC(COP(=O)([O-])OCC[N+](C)(C)C)NC(=O)CCCCCCCCCC` (stereo not shown) [Example 21, 3-Dodecylmercapto-2-decylcarbonylaminopropyl-1-phosphoric acid monocholine ester], for which the IC50 in data set [2] came to 5 µg/mL (≈ 8.21 µM). As to `CCCCCCCCCCCC[S+]([O-])CC(COP(=O)([O-])OCC[N+](C)(C)C)OCCCCCCCCCC` (stereo not shown) [Example 22, 3-Dodecylsulphinyl-2-decyloxypropyl-1-phosphoric acid monocholine ester], the IC50 in data set [2] turned out to be 4 µg/mL (≈ 6.69 µM). For `CCCCCCCCCCCOC(COP(=O)([O-])OCC[N+](C)(C)C)C[S+]([O-])CCCCCCCCCCC` (stereo not shown) [Example 24, 3-Undecylsulphinyl-2-undecyloxypropyl-1-phosphoric acid monocholine ester], the IC50 in data set [2] was found to be 4 µg/mL (≈ 6.69 µM). Still for that read-out and setting: the value for `CCCCCCCCCCCCC[S+]([O-])CC(COP(=O)([O-])OCC[N+](C)(C)C)OCCCCCCCCCC` (stereo not shown) [Example 25, 3-Tridecylsulphinyl-2-decyloxypropyl-1-phosphoric acid monocholine ester] was 2 µg/mL (≈ 3.27 µM).
